# Values of other authors, collected in patent publication US12090168B2, “Glucose glycans for treating urea cycle disorders” (DSM Nutritional Products, LLC, priority 2017, dated 2024).
# Details: administered in combination with lactulose
smiles,measurement,value
CO[C@H]1/C=C/O[C@@]2(C)Oc3c(C)c(O)c4c(O)c(c5c(nc6cc(C)ccn65)c4c3C2=O)NC(=O)/C(C)=C\C=C\[C@H](C)[C@H](O)[C@@H](C)[C@@H](O)[C@@H](C)[C@H](OC(C)=O)[C@@H]1C [rifaximin],reduction of episodes of OHE,approximately 50%
